Marks after values point to notes of the source that are not given here.

This series can be described thus: Measurement of LogP values by HPLC on reversed phase columns (EEC directive 79/831 Annex V.A8). In kind it is physicochemical. As for the experimental part:
[table] If more than one Log P value is available within the same method, all the values are given and separated by “+”. Calibration was done with straight-chain alkan2-ones (with 3 to 16 carbon atoms) with known Log P values (measurement of Log P values using retention times with linear interpolation between successive alkanones). Lambda-max-values were determined using UV-spectra from 200 nm to 400 nm and the peak values of the chromatographic signals.
For the molecule `CC(=O)c1cnc(Oc2ccc(Cl)cc2)cc1C(F)F` [V.37], the LogP was 3.57^[a]. Turning to `O=C(CCl)c1ccc(Oc2ccc(C(F)F)cc2)nc1Cl` [VI.16], the LogP was 3.42^[a]. Next, `CC(=O)c1ccc(Oc2ccc(OC(F)(F)F)cc2)nc1C(F)(F)F` [V.35]: 4.04^[a]; `COc1ccc(Oc2ccc(C(=O)Cn3cncn3)c(Cl)n2)c(Cl)c1` [VII.19]: 2.58^[a]; `COc1ccc(Oc2ccc(C(C)=O)c(Cl)n2)c(Cl)c1` [V.29]: 3.44^[a]. With `O=C(Cn1cncn1)c1ccc(Oc2ccc(S(F)(F)(F)(F)F)cc2)nc1Cl` [VII.20], the LogP was 3.11^[a]. The result for `O=C(CCl)c1ccc(Oc2ccc(OC(F)(F)F)cc2)nc1C(F)(F)F` [VI.33] reads 4.07^[a].

For `CC(O)(Cn1cncn1)c1cnc(Oc2ccc(Cl)cc2)cc1C(F)(F)F` (single isomer, unassigned) [I.46], the LogP was 2.93^[a]. `CC(O)(Cn1cncn1)c1ccc(Oc2ccc(Cl)cc2)nc1Cl` (single isomer, unassigned) [I.52]: the LogP is 2.62^[a]. The result for `OC(Cn1cncn1)c1ccc(Oc2ccc(C(F)F)cc2)nc1C(F)(F)F` (centres unmarked) [I.74] reads 2.49^[a]; that for `O=C(CCl)c1ccc(Oc2ccc(S(F)(F)(F)(F)F)cc2)nc1Cl` [VI.30], 4.21^[a].

With `OC(Cn1cncn1)c1cnc(Oc2ccccc2)cc1Cl` (racemic) [I.21], the LogP is 1.92^[a]. Take `CC(O)(Cn1cncn1)c1cnc(Oc2ccc(Cl)cc2)cc1Cl` (single isomer, unassigned) [I.53]: the LogP is 2.53^[a].

Turning to `O=C(CBr)c1ccc(Oc2c(F)cc(Cl)cc2F)nc1C(F)(F)F` [VI.32], the LogP is 4.18^[a].

Take `CC(O)(Cn1cncn1)c1ccc(Oc2ccc(Cl)cc2)nc1Cl` (racemic) [I.09]: the LogP was 2.66^[a]. Take `O=C(Cn1cncn1)c1cnc(Oc2ccc(Br)cc2)cc1C(F)(F)F` [VII.27]: the LogP was 3.02^[a]. Regarding `CC(O)(Cn1cncn1)c1cnc(Oc2ccc(OC(F)(F)F)cc2)cc1C(F)(F)F` (centres unmarked) [I.44], the LogP is 3.23^[a]. As to `OC(Cn1cncn1)c1ccc(Oc2ccccc2F)nc1Cl` (racemic) [I.19], the LogP is 2.08^[a]. For `O=C(Cn1cncn1)c1ccc(Oc2ccccc2)nc1Cl` [VII.06], the LogP is 2.21^[a]. The result for `CC(C)c1ccc(Oc2ccc(C(C)(O)Cn3cncn3)c(C(F)(F)F)n2)cc1` (centres unmarked) [I.75] reads 3.35^[a]. Turning to `OC(Cn1cncn1)c1ccc(Oc2ccc(Cl)cc2)nc1OC(F)(F)F` (racemic) [I.26], the LogP is 2.92^[a].

As to `OC(Cn1cncn1)c1cnc(Oc2ccc(OC(F)(F)F)cc2)cc1C(F)(F)F` (centres unmarked) [I.43], the LogP is 3.00^[a]. The result for `CC(O)(Cn1cncn1)c1ccc(Oc2ccc(C(F)(F)F)cc2)nc1C(F)(F)F` (centres unmarked) [I.65] reads 3.04^[a]; that for `OC(Cn1cncn1)(c1ccc(Oc2ccc(Cl)cc2)nc1C(F)(F)F)C1CC1` (centres unmarked) [I.80], 3.32^[a]; that for `FC(F)(F)c1nc(Oc2ccc(Br)cc2)ccc1C1(C2CC2)CO1` (centres unmarked) [IX.08], 5.11^[a]. Turning to `CC(C)CC(=O)c1ccc(Oc2ccc(Cl)cc2)nc1C(F)(F)F` [V.47], the LogP was 4.98^[a]. Next, `CC(O)(Cn1cncn1)c1ccc(Oc2ccc(F)cc2)nc1Oc1ccc(F)cc1` (centres unmarked) [I.77]: 3.13^[a]; `Cc1cc(Cl)ccc1Oc1ccc(C(O)Cn2cncn2)c(Cl)n1` (racemic) [I.15]: 2.75^[a]. Next, `CC(O)(Cn1cncn1)c1cnc(Oc2ccc(Br)cc2)cc1C(F)F` (centres unmarked) [I.82]: 2.78^[a]; `C=CC(O)(Cn1cncn1)c1cnc(Oc2ccc(C(F)(F)F)cc2)cc1C(F)(F)F` (centres unmarked) [I.69]: 3.33^[a]. For the molecule `CC(=O)c1ccc(Oc2ccc(C(=O)Cn3cncn3)c(Cl)n2)cc1` [VII.17], the LogP was 1.96^[a]. Next, `O=C(CCl)c1ccc(Oc2ccc(Cl)cc2)nc1F` [VI.20]: 3.69^[a].

The values above are taken from patent US10485236B2, “Triazole derivatives, intermediates thereof and their use as fungicides” (Bayer CropScience Aktiengesellschaft, priority 2015, dated 2019).
